The results in this text go back to ChEMBL document CHEMBL5465560, “Selectivity Literature for EUbOPEN Chemogenomic Library” (2024).

The target in test [1] is Kappa-type opioid receptor (Homo sapiens, UniProt P41145). Nature of the test: Selectivity interaction (Panel of kinases, GPCRs, ion channels and transporters (enzymatic assay)) EUB0000266bCl OPRK1.
Test [2] concerns the target Tyrosine-protein kinase Fer (Homo sapiens) (UniProt P16591). Put plainly: Selectivity interaction (ProQinase) EUB0000171b FER.
For test [3], the target named is NT-3 growth factor receptor (Homo sapiens, UniProt Q16288). Put plainly: Selectivity interaction (ProQinase) EUB0000171b NTRK3.
In test [4] the target is Serine/threonine-protein kinase WNK1 (Homo sapiens) (UniProt Q9H4A3). Nature of the test: Selectivity interaction (ProQinase) EUB0000171b WNK1.
Test [5] deals with T1, 3-phosphoinositide-dependent protein kinase 1 (Homo sapiens) (UniProt O15530).
T1 sequence (whole entry): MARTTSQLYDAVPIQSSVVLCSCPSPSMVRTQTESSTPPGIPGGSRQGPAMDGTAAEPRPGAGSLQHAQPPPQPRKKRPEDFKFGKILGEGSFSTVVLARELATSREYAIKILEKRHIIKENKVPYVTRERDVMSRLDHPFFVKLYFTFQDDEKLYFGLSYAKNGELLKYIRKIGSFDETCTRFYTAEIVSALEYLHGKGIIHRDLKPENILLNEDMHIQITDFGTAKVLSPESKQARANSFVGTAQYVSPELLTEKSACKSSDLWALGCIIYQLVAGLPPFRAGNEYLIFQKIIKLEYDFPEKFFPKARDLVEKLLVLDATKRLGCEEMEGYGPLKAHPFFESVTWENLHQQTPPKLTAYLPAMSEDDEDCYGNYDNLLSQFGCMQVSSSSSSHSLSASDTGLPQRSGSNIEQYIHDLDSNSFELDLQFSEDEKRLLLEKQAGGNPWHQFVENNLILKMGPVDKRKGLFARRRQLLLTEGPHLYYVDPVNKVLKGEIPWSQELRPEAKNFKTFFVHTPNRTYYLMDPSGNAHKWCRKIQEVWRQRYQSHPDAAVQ
The note with it: at 10 µM.

Test [6] has as its target Serine/threonine-protein kinase PLK1 (Homo sapiens, UniProt P53350). Nature of the test: Selectivity interaction (Ambit KINOMEscan and KiNATiv profiling in Jurkat cells) EUB0000090b PLK1. It is filed as cell-based. The note with it: at 1 µM.
Test [7] concerns the target T2, Phosphatidylinositol 5-phosphate 4-kinase type-2 gamma (Homo sapiens) (UniProt Q8TBX8).
T2 sequence (whole entry): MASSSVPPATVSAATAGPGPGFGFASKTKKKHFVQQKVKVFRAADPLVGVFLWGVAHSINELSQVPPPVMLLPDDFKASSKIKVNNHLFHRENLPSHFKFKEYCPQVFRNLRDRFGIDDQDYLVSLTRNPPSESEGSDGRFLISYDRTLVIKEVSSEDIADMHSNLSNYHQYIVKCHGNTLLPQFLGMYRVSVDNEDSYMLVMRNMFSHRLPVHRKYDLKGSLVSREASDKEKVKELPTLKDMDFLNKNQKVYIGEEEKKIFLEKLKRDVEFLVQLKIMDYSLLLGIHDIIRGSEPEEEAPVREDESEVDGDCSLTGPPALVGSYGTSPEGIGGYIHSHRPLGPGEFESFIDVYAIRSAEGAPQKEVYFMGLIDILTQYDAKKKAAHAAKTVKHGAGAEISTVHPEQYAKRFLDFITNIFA
Put plainly: Selectivity interaction (KinomeScan (DiscoverX)) EUB0001049a PIP4K2C. The note with it: at 1 µM.

The target in test [8] is Angiopoietin-1 receptor (Homo sapiens) (UniProt Q02763). Put plainly: Selectivity interaction (KinomeScan (DiscoverX)) EUB0000655a TEK. The note with it: at 10 µM.
The target in test [9] is T3, Serine/threonine-protein kinase ULK2 (Homo sapiens) (UniProt Q8IYT8).
T3 sequence (whole entry): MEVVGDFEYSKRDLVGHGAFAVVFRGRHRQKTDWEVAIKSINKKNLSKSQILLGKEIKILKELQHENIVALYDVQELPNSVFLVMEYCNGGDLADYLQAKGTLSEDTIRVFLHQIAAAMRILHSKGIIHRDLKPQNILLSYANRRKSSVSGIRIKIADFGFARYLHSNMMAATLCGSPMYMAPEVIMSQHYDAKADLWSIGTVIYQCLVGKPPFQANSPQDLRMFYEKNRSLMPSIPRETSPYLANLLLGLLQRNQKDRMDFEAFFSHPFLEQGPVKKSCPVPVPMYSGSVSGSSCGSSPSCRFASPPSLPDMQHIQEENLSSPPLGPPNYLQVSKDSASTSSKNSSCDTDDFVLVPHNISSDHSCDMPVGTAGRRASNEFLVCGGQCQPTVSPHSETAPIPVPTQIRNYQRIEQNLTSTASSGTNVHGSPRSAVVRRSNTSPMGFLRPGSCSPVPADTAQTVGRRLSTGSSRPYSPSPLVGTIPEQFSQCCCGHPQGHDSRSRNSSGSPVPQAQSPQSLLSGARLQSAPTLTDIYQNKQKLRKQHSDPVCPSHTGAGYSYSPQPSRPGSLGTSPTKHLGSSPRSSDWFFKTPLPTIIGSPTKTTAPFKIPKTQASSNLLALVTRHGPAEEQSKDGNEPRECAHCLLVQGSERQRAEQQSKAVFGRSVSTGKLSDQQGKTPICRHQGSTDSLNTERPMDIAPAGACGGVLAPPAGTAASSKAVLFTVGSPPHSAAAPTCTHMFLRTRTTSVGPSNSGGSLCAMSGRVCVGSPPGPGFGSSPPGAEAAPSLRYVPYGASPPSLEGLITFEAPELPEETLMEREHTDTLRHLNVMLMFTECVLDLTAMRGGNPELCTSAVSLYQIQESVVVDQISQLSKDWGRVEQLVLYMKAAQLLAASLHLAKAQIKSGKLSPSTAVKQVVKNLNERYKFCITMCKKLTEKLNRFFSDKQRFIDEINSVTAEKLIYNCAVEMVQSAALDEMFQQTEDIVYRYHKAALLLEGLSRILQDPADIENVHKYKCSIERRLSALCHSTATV
Put plainly: Selectivity interaction (KinomeScan (DiscoverX)) EUB0000695a ULK2. The note with it: at 100 nM.

The target of test [10] is Histone-lysine N-methyltransferase SETD2 (Homo sapiens) (UniProt Q9BYW2). Put plainly: Selectivity interaction (Methyltransferase screen (radiometric assays, panel of 8 PRMTs, 21 protein lysine methyltransferases, 3 DNA methyltransferases, and one RNA methyltransferase)) EUB0000271b SETD2.
The nature of test [11]: Selectivity interaction (KinomeScan (DiscoverX)) EUB0000607a CDK2H. The note with it: at 10 µM.
The target of test [12] is Alpha-1A adrenergic receptor (Homo sapiens, UniProt P35348). Put plainly: Selectivity interaction (Alpha1A calcium flux assay ) EUB0000877a ADRA1A. Background: Calcium assays in cells follow changes in intracellular calcium, usually with a dye or a luminescent sensor.
Test [13] addresses Myosin light chain kinase, smooth muscle (Homo sapiens, UniProt Q15746). Nature of the test: Selectivity interaction (KinomeScan (DiscoverX)) EUB0001619a MYLK. The note with it: at 1 µM.
Test [14] concerns the target Casein kinase I isoform epsilon (Homo sapiens, UniProt P49674). Nature of the test: Selectivity interaction (KinomeScan (DiscoverX)) EUB0000618a CSNK1E. The note with it: at 10 µM.

Sequence of NT-3 growth factor receptor (Q16288 32-839 limits assumed): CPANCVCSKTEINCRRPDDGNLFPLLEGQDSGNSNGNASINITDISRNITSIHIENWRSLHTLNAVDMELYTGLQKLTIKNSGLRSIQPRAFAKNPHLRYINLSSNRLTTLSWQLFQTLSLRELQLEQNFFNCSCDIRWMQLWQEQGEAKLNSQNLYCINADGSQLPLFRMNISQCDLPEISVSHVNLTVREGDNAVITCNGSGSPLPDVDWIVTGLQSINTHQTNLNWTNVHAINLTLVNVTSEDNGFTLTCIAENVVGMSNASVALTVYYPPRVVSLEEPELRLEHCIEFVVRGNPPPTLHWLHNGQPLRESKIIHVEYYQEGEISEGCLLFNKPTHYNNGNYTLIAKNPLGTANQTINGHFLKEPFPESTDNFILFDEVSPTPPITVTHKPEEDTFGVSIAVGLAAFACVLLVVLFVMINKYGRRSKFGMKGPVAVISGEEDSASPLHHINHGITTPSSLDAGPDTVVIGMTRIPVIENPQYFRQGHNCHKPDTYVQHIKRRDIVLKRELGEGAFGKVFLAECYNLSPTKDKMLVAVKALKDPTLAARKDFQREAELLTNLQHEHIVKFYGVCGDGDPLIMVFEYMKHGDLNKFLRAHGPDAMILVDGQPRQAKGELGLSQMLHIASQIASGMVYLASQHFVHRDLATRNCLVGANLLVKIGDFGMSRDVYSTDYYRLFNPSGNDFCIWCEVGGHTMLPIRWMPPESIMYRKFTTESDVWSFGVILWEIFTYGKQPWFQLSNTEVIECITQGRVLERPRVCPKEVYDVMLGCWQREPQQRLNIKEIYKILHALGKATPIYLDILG
Sequence of Histone-lysine N-methyltransferase SETD2 (Homo sapiens) (Q9BYW2 whole entry): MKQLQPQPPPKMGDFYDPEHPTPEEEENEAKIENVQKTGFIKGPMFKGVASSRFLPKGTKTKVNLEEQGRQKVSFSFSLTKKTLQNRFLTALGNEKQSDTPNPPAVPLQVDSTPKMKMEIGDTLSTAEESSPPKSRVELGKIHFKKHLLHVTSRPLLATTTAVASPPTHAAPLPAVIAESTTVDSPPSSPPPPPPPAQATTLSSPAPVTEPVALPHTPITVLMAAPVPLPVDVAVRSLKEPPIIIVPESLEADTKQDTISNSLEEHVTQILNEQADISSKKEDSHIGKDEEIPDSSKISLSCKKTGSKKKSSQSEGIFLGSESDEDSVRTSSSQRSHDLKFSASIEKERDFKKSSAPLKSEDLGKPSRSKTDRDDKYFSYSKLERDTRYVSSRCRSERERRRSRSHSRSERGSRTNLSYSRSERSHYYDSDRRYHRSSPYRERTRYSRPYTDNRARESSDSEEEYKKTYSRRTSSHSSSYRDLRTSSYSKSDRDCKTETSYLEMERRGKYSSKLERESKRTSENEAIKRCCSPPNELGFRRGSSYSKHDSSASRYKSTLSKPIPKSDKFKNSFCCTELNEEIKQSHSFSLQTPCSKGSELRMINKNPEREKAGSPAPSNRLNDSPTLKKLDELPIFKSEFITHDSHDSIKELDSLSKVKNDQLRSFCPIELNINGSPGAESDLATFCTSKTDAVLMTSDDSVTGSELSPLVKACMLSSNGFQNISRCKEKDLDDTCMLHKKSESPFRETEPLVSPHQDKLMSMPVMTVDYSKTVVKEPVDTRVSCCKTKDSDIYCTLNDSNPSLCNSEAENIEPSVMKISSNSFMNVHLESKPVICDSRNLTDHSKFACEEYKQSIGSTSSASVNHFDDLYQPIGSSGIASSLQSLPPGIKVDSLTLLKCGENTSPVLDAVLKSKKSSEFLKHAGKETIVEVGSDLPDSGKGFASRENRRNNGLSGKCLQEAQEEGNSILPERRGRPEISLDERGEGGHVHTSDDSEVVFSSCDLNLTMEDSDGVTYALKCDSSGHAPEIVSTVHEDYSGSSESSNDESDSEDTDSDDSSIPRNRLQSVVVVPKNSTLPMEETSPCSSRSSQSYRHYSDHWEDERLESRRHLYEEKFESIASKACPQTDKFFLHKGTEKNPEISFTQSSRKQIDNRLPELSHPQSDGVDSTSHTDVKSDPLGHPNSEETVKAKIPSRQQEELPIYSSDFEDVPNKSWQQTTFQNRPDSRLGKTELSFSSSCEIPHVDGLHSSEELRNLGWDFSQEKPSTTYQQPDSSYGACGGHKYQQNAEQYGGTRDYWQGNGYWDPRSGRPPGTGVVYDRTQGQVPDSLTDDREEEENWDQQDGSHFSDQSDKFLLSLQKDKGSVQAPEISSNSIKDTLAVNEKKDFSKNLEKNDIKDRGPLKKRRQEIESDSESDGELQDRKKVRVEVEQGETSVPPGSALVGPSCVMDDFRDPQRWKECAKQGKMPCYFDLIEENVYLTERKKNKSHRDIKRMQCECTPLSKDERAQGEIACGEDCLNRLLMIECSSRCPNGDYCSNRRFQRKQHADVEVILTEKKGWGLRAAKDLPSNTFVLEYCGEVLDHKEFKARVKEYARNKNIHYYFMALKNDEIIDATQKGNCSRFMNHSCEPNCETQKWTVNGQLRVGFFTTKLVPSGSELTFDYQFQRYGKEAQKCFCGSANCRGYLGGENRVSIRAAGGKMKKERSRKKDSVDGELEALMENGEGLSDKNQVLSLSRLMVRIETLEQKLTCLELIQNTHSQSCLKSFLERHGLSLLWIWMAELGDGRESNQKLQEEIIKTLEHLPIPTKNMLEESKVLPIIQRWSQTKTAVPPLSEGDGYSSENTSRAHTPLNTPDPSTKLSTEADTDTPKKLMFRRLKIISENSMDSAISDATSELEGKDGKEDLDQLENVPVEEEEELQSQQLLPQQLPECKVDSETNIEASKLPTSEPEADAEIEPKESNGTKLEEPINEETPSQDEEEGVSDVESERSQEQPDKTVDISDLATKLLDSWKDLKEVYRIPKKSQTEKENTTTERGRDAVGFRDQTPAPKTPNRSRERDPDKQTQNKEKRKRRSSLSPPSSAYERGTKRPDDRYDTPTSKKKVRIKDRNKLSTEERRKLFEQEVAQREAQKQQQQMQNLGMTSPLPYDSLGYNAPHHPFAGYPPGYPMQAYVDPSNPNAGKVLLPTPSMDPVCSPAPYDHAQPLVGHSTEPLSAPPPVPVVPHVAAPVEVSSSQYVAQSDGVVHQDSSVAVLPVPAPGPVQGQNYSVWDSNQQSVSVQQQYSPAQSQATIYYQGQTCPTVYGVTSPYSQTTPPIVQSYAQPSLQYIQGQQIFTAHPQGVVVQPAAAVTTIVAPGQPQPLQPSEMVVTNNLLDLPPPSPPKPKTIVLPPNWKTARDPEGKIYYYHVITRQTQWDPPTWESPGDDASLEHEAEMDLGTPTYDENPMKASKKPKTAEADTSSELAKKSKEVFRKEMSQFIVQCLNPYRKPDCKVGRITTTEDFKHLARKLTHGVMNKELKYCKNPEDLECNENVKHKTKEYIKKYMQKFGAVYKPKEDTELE
Sequence of Tyrosine-protein kinase Fer (Homo sapiens) (P16591 whole entry, looked up): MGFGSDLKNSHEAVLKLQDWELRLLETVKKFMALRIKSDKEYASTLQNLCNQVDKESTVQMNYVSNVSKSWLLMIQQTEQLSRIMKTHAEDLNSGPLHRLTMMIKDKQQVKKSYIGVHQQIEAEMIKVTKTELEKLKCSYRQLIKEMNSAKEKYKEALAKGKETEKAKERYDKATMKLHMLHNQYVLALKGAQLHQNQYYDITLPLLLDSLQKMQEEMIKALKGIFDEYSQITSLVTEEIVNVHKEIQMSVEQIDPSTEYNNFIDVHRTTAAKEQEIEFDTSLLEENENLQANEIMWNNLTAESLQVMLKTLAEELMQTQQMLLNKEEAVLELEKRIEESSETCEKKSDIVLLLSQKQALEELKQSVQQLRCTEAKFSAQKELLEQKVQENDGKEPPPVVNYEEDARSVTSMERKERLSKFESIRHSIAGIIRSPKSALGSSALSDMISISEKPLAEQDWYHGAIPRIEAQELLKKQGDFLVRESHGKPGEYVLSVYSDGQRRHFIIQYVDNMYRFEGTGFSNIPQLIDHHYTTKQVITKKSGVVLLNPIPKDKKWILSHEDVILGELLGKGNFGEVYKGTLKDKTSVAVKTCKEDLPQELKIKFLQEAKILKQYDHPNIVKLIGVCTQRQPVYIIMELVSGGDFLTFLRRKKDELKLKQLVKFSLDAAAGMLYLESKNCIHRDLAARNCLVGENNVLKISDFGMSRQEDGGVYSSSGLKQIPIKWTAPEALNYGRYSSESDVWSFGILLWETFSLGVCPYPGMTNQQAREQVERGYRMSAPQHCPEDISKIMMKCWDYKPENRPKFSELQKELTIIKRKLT
Sequence of Kappa-type opioid receptor (P41145 whole entry): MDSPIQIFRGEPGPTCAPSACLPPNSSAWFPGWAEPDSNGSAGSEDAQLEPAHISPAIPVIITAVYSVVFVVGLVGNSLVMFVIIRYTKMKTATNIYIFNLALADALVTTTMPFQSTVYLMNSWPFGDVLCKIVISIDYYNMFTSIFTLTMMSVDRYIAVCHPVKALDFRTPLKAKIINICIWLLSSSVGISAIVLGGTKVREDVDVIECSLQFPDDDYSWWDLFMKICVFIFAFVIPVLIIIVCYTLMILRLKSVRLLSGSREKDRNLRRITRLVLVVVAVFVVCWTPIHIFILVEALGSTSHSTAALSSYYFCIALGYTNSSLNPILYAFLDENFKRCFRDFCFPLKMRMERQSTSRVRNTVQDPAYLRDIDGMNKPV
Sequence of Alpha-1A adrenergic receptor (P35348 whole entry): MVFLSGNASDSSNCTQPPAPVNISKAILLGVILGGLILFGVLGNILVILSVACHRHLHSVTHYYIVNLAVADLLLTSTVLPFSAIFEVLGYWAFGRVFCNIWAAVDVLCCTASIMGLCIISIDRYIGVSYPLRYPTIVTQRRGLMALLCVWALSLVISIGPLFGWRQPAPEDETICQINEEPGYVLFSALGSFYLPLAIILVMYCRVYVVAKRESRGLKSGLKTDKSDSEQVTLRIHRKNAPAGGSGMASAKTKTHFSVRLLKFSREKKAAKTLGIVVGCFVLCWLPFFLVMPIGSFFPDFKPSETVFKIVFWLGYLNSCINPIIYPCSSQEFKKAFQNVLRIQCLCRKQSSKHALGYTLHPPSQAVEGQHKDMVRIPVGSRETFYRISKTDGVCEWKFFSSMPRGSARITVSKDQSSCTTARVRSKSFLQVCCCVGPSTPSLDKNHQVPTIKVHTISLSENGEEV

For `CCn1c(-c2nc3cc(C(=O)N4CCCC(N)C4)ccc3n2C)cc2ccccc21` (stereo not drawn), in test [1], the pXC50 is > 4 M. Take `C=CC(=O)Nc1cccc(C(=O)Nc2ccc(Nc3cc(-c4[nH]c(SC)nc4C)ccn3)cc2)c1`: the % of control in [2] (at 1 µM) is 104%; in test [2] (at 5 µM), 93%; in test [3] (at 1 µM), 99%; in test [3] (at 5 µM) it was 79%; in test [4] (at 1 µM), 95%; in [4] (at 5 µM) it was 81%.

With `Cc1cc([C@@H](C)Nc2ccccc2C(=O)O)c2nc(N3CCOCC3)cc(=O)n2c1` [AZD-6482], in [5], the % of control worked out at 100%.

Regarding `CN(C)C/C=C/C(=O)Nc1ccc(C(=O)N2CCCC(Nc3ncc(Cl)c(-c4c[nH]c5ccccc45)n3)C2)cc1` (stereo not drawn), in test [6], the % of control was 90%. The compound `COc1cc(Nc2nc(C)cc(-c3cnn4nc(OC)ccc34)n2)cc(C(F)(F)F)c1` gave a % of control in [7] of 100%. In turn, `CN(C)CCOc1ccc(-c2nc(-c3ccncc3)c(-c3ccc4c(c3)CC/C4=N\O)[nH]2)cc1` displayed a % of control in test [8] of 63%. Take `Cc1cc(F)c(C(=O)Nc2cccc(-c3nncn3C(C)C)n2)cc1-n1cnc(C2CC2)c1`: the % of control in test [9] came to 91%. With `Cc1cc(C)cc([C@@H]2c3cc(C)ccc3NC(=O)CN2C(=O)c2ccc(Br)s2)c1`, the % of activity in test [10] (at 1 µM) came to 104%; in [10] (at 10 µM) it was 101%. Turning to `CNC(=O)Nc1ccc(-c2nc(N3CC4CCC(C3)O4)c3cnn(C4CCC5(CC4)OCCO5)c3n2)cc1`, the % of control in test [11] worked out at 100%.

One may read the IC50 as the concentration that gives 50% inhibition. Regarding `CCC(=O)N1CC[C@H](Nc2ncnc3c2CN(c2cnc(OC)c(C(F)(F)F)c2)CC3)C1` [LENIOLISIB], the half-inhibitory concentration (IC50) in [12] is > 30 µM. The compound `N#Cc1cccc(-c2c[nH]c3ncnc(N4CCOCC4)c23)c1` came in with a % of control in [13] of 93%.

`O[C@H]1CC[C@H](Nc2ncc3nc(Nc4c(F)cc(F)cc4F)n([C@H]4CCOC4)c3n2)CC1`: in test [14], the % of control was determined as 11%.
